In PMC11904993, “Humanized Candida and NanoBiT Assays Expedite Discovery of Bdf1 Bromodomain Inhibitors With Antifungal Potential” (Advanced Science, 2025):
Several values for one entry are separate records, joined by “and”; a condition that tells them apart may be missing. Equal entries are not always repeated. Where two headings read alike, the source gives them in different places.

Assays:
CgBdf1 BD1 [1] = biological target: CgBdf1 BD1 (Candida glabrata, UniProt Q6FWV7); experiment: HTRF assay, inhibition of H4ac4 peptide binding; parameters: species or system C. glabrata; details: for IC50: Table S4
CgBdf1 BD2 [2] = biological target: CgBdf1 BD2 (Candida glabrata, UniProt Q6FWV7); experiment: biochemical; format: binding, C. glabrata
human Brd4 BD1 = human Brd4 BD1 (Homo sapiens, UniProt O60885); experiment: HTRF assay, inhibition of H4ac4 peptide binding; details: for %HTRF Signal: Exp1-3
human Brd4 BD2 = biological target: T1, human Brd4 BD2 (Homo sapiens, UniProt O60885); experiment: HTRF assay, inhibition of H4ac4 peptide binding; details: hBrd4 BD2; for %HTRF Signal: Exp1-3
T1 construct: GST‐tagged BD2 (residues 349–460) from human Brd4 (UniProt ID O60885); purchased Reaction Biology Corp

CgBdf1 BD1 [3] = experiment: Histone peptide array assay; details: peptide array signal
Protocol: (§1) The array was prepared as described in the manufacturer's instructions. […] The array was then washed three times with binding buffer. Anti‐GST antibody (GE Healthcare) was used for the detection of GST‐tagged bromodomains.

CgBdf1 BD2 [4] = experiment: Histone peptide array assay; details: peptide array signal
Protocol: as §1

[5] = tested on: C. glabrata strains expressing WT and mutant Bdf1; experiment: Growth inhibition in liquid media, C. glabrata lab strains; details: Exp 1-3, Figure S9A
Protocol: Growth on Liquid Media with C. glabrata Lab Strains: Cells were grown at 30 °C in SC+M+C‐U medium (SC medium with 5 mM methionine, 0.25 mM cysteine, without uracil) to an OD600 of 0.5–0.8. […] Plates were incubated at 30 °C and OD600 was measured using a Multiskan FC Microplate Photometer (Thermo Fisher).

[6] = Fig 1D/2A original data, single experiments Exp1-3

Sequence of CgBdf1 BD2 (Candida glabrata, UniProt Q6FWV7) (Q6FWV7 entry or part of it): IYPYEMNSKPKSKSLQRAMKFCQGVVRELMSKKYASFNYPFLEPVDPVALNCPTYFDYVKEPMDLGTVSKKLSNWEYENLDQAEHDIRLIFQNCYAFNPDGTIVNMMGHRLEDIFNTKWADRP
Sequence of CgBdf1 BD1 (Candida glabrata, UniProt Q6FWV7) (Q6FWV7 entry or part of it): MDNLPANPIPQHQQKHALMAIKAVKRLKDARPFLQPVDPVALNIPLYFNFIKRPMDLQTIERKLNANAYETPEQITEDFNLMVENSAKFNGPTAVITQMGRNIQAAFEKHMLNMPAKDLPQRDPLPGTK

Structure (SMILES): Cn1nccc1C(=O)NCc1ccc(-c2nc(-c3cccs3)no2)s1 [Compound 63]
- %HTRF Signal (CgBdf1 BD1 [1]): 92.96% and 94.93% and 114.99%
- %HTRF Signal (CgBdf1 BD1 [1]; CgBD1, compound 2.10 nM, Exp1-3): 89.22% and 91.15% and 92.46%
- %HTRF Signal (CgBdf1 BD1 [1]; CgBD1, compound 13.11 nM, Exp1-3): 137.24% and 96.18% and 98.59%
- %HTRF Signal (CgBdf1 BD1 [1]; CgBD1, compound 32.77 nM, Exp1-3): 89.47% and 88.02% and 93.78%
- %HTRF Signal (CgBdf1 BD1 [1]; CgBD1, compound 81.92 nM, Exp1-3): 87.12% and 79.28% and 89.90%
- %HTRF Signal (CgBdf1 BD1 [1]; CgBD1, compound 204.8 nM, Exp1-3): 79.54% and 70.30% and 76.77%
- %HTRF Signal (CgBdf1 BD1 [1]; CgBD1, compound 512 nM, Exp1-3): 60.42% and 54.51% and 55.50%
- %HTRF Signal (CgBdf1 BD1 [1]; CgBD1, compound 1280 nM, Exp1-3): 88.32% and 78.12% and 81.58%
- %HTRF Signal (CgBdf1 BD1 [1]; CgBD1, compound 3200 nM, Exp1-3): 43.73% and 36.43% and 36.08%
- %HTRF Signal (CgBdf1 BD1 [1]; CgBD1, compound 8000 nM, Exp1-3): 32.25% and 38.09% and 29.97%
- %HTRF Signal (CgBdf1 BD1 [1]; CgBD1, compound 20000 nM, Exp1-3): 23.85% and 25.61% and 19.76%
- IC50 (CgBdf1 BD1 [1]; CgBD1, individual experiments Exp1-3, read-out: IC50): 0.62 µM and 0.71 µM and 0.5 µM
- pIC50 CgBD1 (CgBdf1 BD1 [1]; [6]): 6.209 and 6.147 and 6.298
- IC50 (CgBdf1 BD1 [1]; means ± SD, n=3, read-out: IC50 CgBD1): 0.61 ± 0.1 µM
- %HTRF Signal (CgBdf1 BD2 [2]): 91.88% and 95.70% and 106.64%
- pIC50 CgBD2 (CgBdf1 BD2 [2]): ≤ 4
- %HTRF Signal (CgBdf1 BD2 [2]; CgBD2, compound 2.10 nM, Exp1-3): 86.71% and 109.56% and 96.63%
- %HTRF Signal (CgBdf1 BD2 [2]; CgBD2, compound 13.11 nM, Exp1-3): 107.12% and 98.52% and 93.70%
- %HTRF Signal (CgBdf1 BD2 [2]; CgBD2, compound 32.77 nM, Exp1-3): 87.98% and 111.39% and 100.52%
- %HTRF Signal (CgBdf1 BD2 [2]; CgBD2, compound 81.92 nM, Exp1-3): 93.69% and 107.27% and 99.37%
- %HTRF Signal (CgBdf1 BD2 [2]; CgBD2, compound 204.8 nM, Exp1-3): 87.47% and 98.47% and 101.59%
- %HTRF Signal (CgBdf1 BD2 [2]; CgBD2, compound 512 nM, Exp1-3): 94.84% and 95.89% and 102.41%
- %HTRF Signal (CgBdf1 BD2 [2]; CgBD2, compound 1280 nM, Exp1-3): 108.51% and 97.41% and 103.91%
- %HTRF Signal (CgBdf1 BD2 [2]; CgBD2, compound 3200 nM, Exp1-3): 96.71% and 89.90% and 106.57%
- %HTRF Signal (CgBdf1 BD2 [2]; CgBD2, compound 8000 nM, Exp1-3): 101.27% and 103.49% and 103.29%
- %HTRF Signal (CgBdf1 BD2 [2]; CgBD2, compound 20000 nM, Exp1-3): 98.71% and 85.34% and 94.42%
- IC50 (CgBdf1 BD2 [2]; CgBD2, individual experiments Exp1-3, Table S4, read-out: IC50): > 20 µM
- pIC50 hBrd4 BD1 (human Brd4 BD1; [6]): 4.548 and 4.767 and 4.490
- IC50 (human Brd4 BD1; Table S3, estimate, preliminary single-replicate HTRF assay, read-out: IC50 Brd4 BD1): > 20 µM
- IC50 (human Brd4 BD1; Table S4, means ± SD, n=3, read-out: IC50 hBrd4 BD1): 25.9 ± 7.9 µM
- %HTRF Signal (human Brd4 BD1; hBrd4 BD1, compound 2.10 nM): 98.36% and 97.75% and 98.52%
- %HTRF Signal (human Brd4 BD1; hBrd4 BD1, compound 5.24 nM): 96.44% and 101.52% and 99.57%
- %HTRF Signal (human Brd4 BD1; hBrd4 BD1, compound 13.11 nM): 96.19% and 93.70% and 100.56%
- %HTRF Signal (human Brd4 BD1; hBrd4 BD1, compound 32.77 nM): 100.99% and 95.89% and 96.28%
- %HTRF Signal (human Brd4 BD1; hBrd4 BD1, compound 81.92 nM): 95.84% and 103.64% and 102.41%
- %HTRF Signal (human Brd4 BD1; hBrd4 BD1, compound 204.8 nM): 99.83% and 98.50% and 97.67%
- %HTRF Signal (human Brd4 BD1; hBrd4 BD1, compound 512 nM): 96.60% and 93.56% and 96.36%
- %HTRF Signal (human Brd4 BD1; hBrd4 BD1, compound 1280 nM): 82.33% and 98.72% and 104.43%
- %HTRF Signal (human Brd4 BD1; hBrd4 BD1, compound 3200 nM): 94.57% and 92.75% and 93.44%
- %HTRF Signal (human Brd4 BD1; hBrd4 BD1, compound 8000 nM): 83.80% and 81.87% and 89.53%
- %HTRF Signal (human Brd4 BD1; hBrd4 BD1, compound 20000 nM): 44.73% and 68.85% and 53.13%
- IC50 (human Brd4 BD1; hBrd4 BD1, individual experiments Exp1-3, Table S4, read-out: IC50): 17.1 µM and 32.4 µM and 28.3 µM
- %HTRF Signal (human Brd4 BD2; compound 2.10 nM): 99.18% and 94.17% and 90.64%
- %HTRF Signal (human Brd4 BD2; compound 5.24 nM): 99.39% and 99.07% and 97.43%
- %HTRF Signal (human Brd4 BD2; compound 13.11 nM): 98.29% and 101.48% and 93.41%
- %HTRF Signal (human Brd4 BD2; compound 32.77 nM): 93.01% and 99.51% and 101.32%
- %HTRF Signal (human Brd4 BD2; compound 81.92 nM): 102.00% and 98.93% and 106.04%
- %HTRF Signal (human Brd4 BD2; compound 204.8 nM): 100.03% and 105.21% and 104.21%
- %HTRF Signal (human Brd4 BD2; compound 512 nM): 98.01% and 98.41% and 97.72%
- %HTRF Signal (human Brd4 BD2; compound 1280 nM): 99.07% and 96.81% and 100.81%
- %HTRF Signal (human Brd4 BD2; compound 3200 nM): 102.84% and 98.87% and 104.55%
- %HTRF Signal (human Brd4 BD2; compound 8000 nM): 108.22% and 84.57% and 107.59%
- %HTRF Signal (human Brd4 BD2; compound 20000 nM): 102.02% and 76.14% and 105.57%
- IC50 (human Brd4 BD2; individual experiments Exp1-3, Table S4, read-out: IC50): > 20 µM (2×) and 29.2 µM
- Raw data, WT (CgBdf1 BD1 [3]; CgBdf1 BD1 WT, first replicate column): 0.003151
- Normalized (0 to 100%), WT (CgBdf1 BD1 [3]; CgBdf1 BD1 WT, mean of the two raw values): 1.81%
- Raw data, WT (CgBdf1 BD1 [3]; CgBdf1 BD1 WT, second replicate column): 0.03308
- Raw data, YF mutant (CgBdf1 BD1 [3]; CgBdf1 BD1 YF mutant, first replicate column): 0.001234
- Normalized (0 to 100%), YF mutant (CgBdf1 BD1 [3]; CgBdf1 BD1 YF mutant, mean of the two raw values): 0.216%
- Raw data, YF mutant (CgBdf1 BD1 [3]; CgBdf1 BD1 YF mutant, second replicate column): 0.003085
- Raw data, WT (CgBdf1 BD2 [4]; CgBdf1 BD2 WT, first replicate column): 0.004055
- Normalized (0 to 100%), WT (CgBdf1 BD2 [4]; CgBdf1 BD2 WT, mean of the two raw values): 0.593%
- Raw data, WT (CgBdf1 BD2 [4]; CgBdf1 BD2 WT, second replicate column): 0.007798
- Raw data, YF mutant (CgBdf1 BD2 [4]; CgBdf1 BD2 YF mutant, first replicate column): 0.009509
- Normalized (0 to 100%), YF mutant (CgBdf1 BD2 [4]; CgBdf1 BD2 YF mutant, mean of the two raw values): 0.675%
- Raw data, YF mutant (CgBdf1 BD2 [4]; CgBdf1 BD2 YF mutant, second replicate column): 0.003988
- OD at 600 nm ([5]; WT BDF1 strain): 0.4973 and 0.4763 and 0.4793
- OD at 600 nm ([5]; bdf1-bd1Δ strain): 0.2357 and 0.2187 and 0.2437
- OD at 600 nm ([5]; bdf1-bd2Δ strain): 0.1390 and 0.1480 and 0.1420
